These results are taken from PubChem BioAssay (NCI).

Molecules are shown by their SMILES. Several values for one entry are separate records, joined by “and”; a condition that tells them apart may be missing. Identical values can stand only once.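 A five-concentration, 48-hour dose response in 96-well plates underlies each endpoint, interpolated linearly between surrounding concentrations. Abbreviation: GI50, concentration required for 50% inhibition of growth. Definition used: TGI = concentration required for complete inhibition of growth.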 Some results are limits rather than exact numbers.

Some test systems named below: 786-0 renal; A549 NSCLC; ACHN renal; CCRF-CEM leukemia; K-562 leukemia; MDA-MB-231 breast; MDA-MB-435; NCI-H460 lung; SF-539 CNS; SW-620 colon.
Assay in all cases: NCI anticancer screen, dose series, 48 h

Consider `[N-]=[N+]=Nc1ncc(-c2ccc(C(F)(F)F)cc2)c(NC2CCCCCC2)n1`, for which the GI50 with 786-0 renal, in the test on A549 NSCLC, with ACHN renal, in the test with CCRF-CEM leukemia, with K-562 leukemia and in the test on MDA-MB-231 breast was over 10 µM throughout. The GI50 in the test with MDA-MB-435, in the test with NCI-H460 lung, with SF-539 CNS and in the test on SW-620 colon was over 10 µM throughout. For the same compound, the TGI with 786-0 renal, in the test with A549 NSCLC, in the test on ACHN renal, with CCRF-CEM leukemia, in the test with K-562 leukemia and in the test with MDA-MB-231 breast was over 10 µM in each case. Also, the TGI in the test on MDA-MB-435, in the test on NCI-H460 lung, in the test on SF-539 CNS and in the test with SW-620 colon was over 10 µM each time.

As for `c1ccc(-c2nc(Nc3ccc(-c4nc5ccccc5[nH]4)cc3)nc(N3CCOCC3)n2)cc1`, the GI50 was 0.257 µM with 786-0 renal; 1.95 µM with A549 NSCLC; 1.25 µM in the test with ACHN renal; 0.545 µM in the test on CCRF-CEM leukemia; 0.295 µM in the test with K-562 leukemia; 1.29 µM with MDA-MB-231 breast. For the same compound, the GI50 in the test with MDA-MB-435 is 1.76 µM; in the test on NCI-H460 lung it was 0.822 µM; in the test on SF-539 CNS, 1.42 µM; in the test on SW-620 colon, 0.627 µM. Moreover, the TGI is 1.25 µM with 786-0 renal; 4.01 µM in the test on A549 NSCLC; 2.74 µM with ACHN renal; 3.12 µM with CCRF-CEM leukemia; 0.959 µM in the test on K-562 leukemia; 3.48 µM in the test with MDA-MB-231 breast. Further, the TGI in the test with MDA-MB-435 worked out at 3.28 µM; in the test with NCI-H460 lung it was 2.46 µM; with SF-539 CNS, 2.94 µM; in the test on SW-620 colon it was 2.17 µM.

Consider `CC1(C)OC2C(CO)OC(n3ccc(=O)[nH]c3=O)C2O1` (configuration not stated), for which the TGI in the test with 786-0 renal, in the test on A549 NSCLC, in the test on ACHN renal, in the test on CCRF-CEM leukemia, with K-562 leukemia and in the test on MDA-MB-231 breast was over 100 µM in each case. The TGI in the test with MDA-MB-435, with NCI-H460 lung, in the test on SF-539 CNS and in the test with SW-620 colon was over 100 µM throughout.

`COc1ccc(C2CC(=O)Nc3c2c(C)nn3-c2nc3ccccc3[nH]2)cc1` (configuration not stated): the GI50 is 3.82 µM in the test with 786-0 renal; 3.04 µM in the test with A549 NSCLC; 3.55 µM with ACHN renal; 2.11 µM in the test with CCRF-CEM leukemia; 2.9 µM with K-562 leukemia; 2.25 µM in the test on MDA-MB-231 breast. For the same compound, the GI50 in the test with MDA-MB-435 was 2.55 µM; in the test with NCI-H460 lung, 2.39 µM; in the test on SF-539 CNS it was 2.16 µM; in the test on SW-620 colon it was 3.33 µM. Further, the TGI is over 33.3 µM with 786-0 renal; 15.1 µM in the test with A549 NSCLC; over 57.4 µM in the test with ACHN renal; over 27.9 µM in the test on CCRF-CEM leukemia; over 35.5 µM with K-562 leukemia; 5.3 µM in the test with MDA-MB-231 breast. Besides, the TGI in the test with MDA-MB-435 amounted to 6.84 µM; with NCI-H460 lung, 5.89 µM; with SF-539 CNS it was 4.94 µM; with SW-620 colon, 20.6 µM.

Consider `C#Cc1cccc(NC(=O)Nc2ccc(NC(=O)CCl)cc2)c1`, for which the GI50 in the test with 786-0 renal is 12.5 µM; in the test on A549 NSCLC, over 82.5 µM; in the test with ACHN renal, 14 µM; in the test with CCRF-CEM leukemia it was 9.55 µM; with K-562 leukemia, 15.5 µM; with MDA-MB-231 breast, 14.8 µM. The GI50 in the test on MDA-MB-435 is 22.1 µM; in the test on NCI-H460 lung, 22 µM; in the test with SF-539 CNS, 13.3 µM; with SW-620 colon it was 14.9 µM. Also, the TGI in the test with 786-0 renal was 23.7 µM; in the test on A549 NSCLC it was over 82.5 µM; with ACHN renal, 26 µM; in the test on CCRF-CEM leukemia, 26.9 µM; in the test with K-562 leukemia it was 53.9 µM; in the test on MDA-MB-231 breast, 34 µM. For the same compound, the TGI in the test on MDA-MB-435 is over 82.5 µM; with NCI-H460 lung, over 82.5 µM; in the test on SF-539 CNS, 25 µM; in the test on SW-620 colon, 33.2 µM.

For the compound `COc1cc2c(cc1OCCCCCOc1cc(-c3ccc(F)cc3)nc(C)n1)N=C[C@@H]1CCCN1C2=O`, the GI50 is over 44.9 µM in the test with 786-0 renal; over 41.2 µM in the test with A549 NSCLC; over 37.6 µM in the test on ACHN renal; over 21.6 µM in the test with K-562 leukemia; over 39.5 µM in the test with MDA-MB-231 breast; over 45.3 µM in the test on MDA-MB-435. For the same compound, the GI50 is over 36 µM in the test on NCI-H460 lung, over 100 µM in the test on SF-539 CNS and over 32.1 µM with SW-620 colon. Besides, the TGI was over 67.5 µM in the test with 786-0 renal; over 66.3 µM in the test with A549 NSCLC; over 68.6 µM in the test with ACHN renal; over 45.2 µM in the test with CCRF-CEM leukemia; over 66.4 µM with K-562 leukemia; over 65.5 µM in the test on MDA-MB-231 breast. Moreover, the TGI is over 67.5 µM in the test with MDA-MB-435, over 58.5 µM in the test with NCI-H460 lung, over 100 µM with SF-539 CNS and over 87.1 µM in the test on SW-620 colon.

Turning to `COc1cc(N2CCC(N(C)C)CC2)ccc1Nc1ncc(Cl)c(Nc2ccccc2P(C)(C)=O)n1`, the GI50 in the test on 786-0 renal was 1.12 µM and 0.483 µM; in the test with A549 NSCLC, 0.617 µM and 0.218 µM; with ACHN renal, 0.972 µM; in the test on MDA-MB-231 breast, 1.22 µM and 0.333 µM; in the test on MDA-MB-435, 1.94 µM and 0.972 µM; in the test on NCI-H460 lung, 1.92 µM and 0.385 µM. Besides, the GI50 in the test with SF-539 CNS was 1.15 µM and 0.511 µM; in the test on SW-620 colon, 1.33 µM and 0.213 µM. Also, the TGI is 10 µM and > 6.3 µM in the test with 786-0 renal; 8.54 µM and > 7.6 µM in the test with A549 NSCLC; over 9.65 µM in the test on ACHN renal; over 100 µM in the test with CCRF-CEM leukemia; over 100 µM with K-562 leukemia; 7.37 µM and > 5.39 µM in the test with MDA-MB-231 breast. In addition, the TGI with MDA-MB-435 was over 87.6 µM; with NCI-H460 lung, 12.9 µM and > 3.67 µM; with SF-539 CNS it was 2.97 µM and 2.49 µM; with SW-620 colon it was > 26.5 µM and 6.65 µM.

As for `O=C(CNC(=O)c1cccc2ccccc12)Nc1ccccc1Oc1cccc(O)c1`, the GI50 is 9.93 µM in the test on 786-0 renal; 9.64 µM with A549 NSCLC; 17.4 µM in the test on ACHN renal; 4.17 µM in the test with CCRF-CEM leukemia; 1.05 µM in the test with K-562 leukemia; 17.6 µM with MDA-MB-231 breast. Besides, the GI50 with MDA-MB-435 is 0.755 µM; in the test with NCI-H460 lung, 5.82 µM; with SF-539 CNS, 4.06 µM; in the test with SW-620 colon, 3.12 µM. In addition, the TGI in the test on 786-0 renal, in the test on A549 NSCLC, with ACHN renal, in the test with CCRF-CEM leukemia, in the test on K-562 leukemia and in the test on MDA-MB-231 breast was over 25 µM each time. Further, the TGI was 3.07 µM in the test on MDA-MB-435, over 25 µM in the test on NCI-H460 lung, 13.8 µM in the test on SF-539 CNS and over 25 µM in the test with SW-620 colon.

For the compound `O=C1C(NCCO)=C(N2CC2)C(=O)C(NCCO)=C1N1CC1`, the TGI was over 60.9 µM with 786-0 renal; over 100 µM in the test on A549 NSCLC; over 100 µM in the test on ACHN renal; 55.9 µM with CCRF-CEM leukemia; 84.7 µM in the test on K-562 leukemia; over 100 µM in the test with MDA-MB-231 breast. Also, the TGI in the test on MDA-MB-435 was over 100 µM; in the test on NCI-H460 lung, over 66.2 µM; in the test with SF-539 CNS, 98 µM; with SW-620 colon, over 83.3 µM.

Take `O=c1cc/c(=N\Nc2ccccc2)c(=O)/c1=N/Nc1ccccc1`: the GI50 in the test with 786-0 renal, with A549 NSCLC, in the test on ACHN renal, in the test with CCRF-CEM leukemia, in the test on K-562 leukemia and in the test on MDA-MB-231 breast was over 50 µM in each case. The GI50 with MDA-MB-435, in the test with NCI-H460 lung, with SF-539 CNS and in the test on SW-620 colon was over 50 µM in each case. Also, the TGI in the test with 786-0 renal, in the test on A549 NSCLC, in the test on ACHN renal, in the test with CCRF-CEM leukemia, with K-562 leukemia and in the test on MDA-MB-231 breast was over 50 µM in each case. Besides, the TGI with MDA-MB-435, with NCI-H460 lung, with SF-539 CNS and in the test on SW-620 colon was over 50 µM throughout.

`C[C@]12CC[C@H]3[C@@H](CCC4=CC(=O)CC[C@@H]43)[C@@H]1CC[C@@H]2OC1(O)C(=O)c2ccccc2C1=O`: the TGI is 83.5 µM in the test with 786-0 renal; over 100 µM in the test on A549 NSCLC; 79.4 µM with ACHN renal; over 100 µM in the test on CCRF-CEM leukemia; over 100 µM with K-562 leukemia; over 100 µM in the test with MDA-MB-231 breast. In addition, the TGI in the test with MDA-MB-435, with NCI-H460 lung, in the test on SF-539 CNS and in the test with SW-620 colon was over 100 µM each time.

For the compound `Cc1c(C(=O)/C=C/c2ccc(O)cc2)nnn1-c1ccnc2c(C(F)(F)F)cccc12`, the GI50 in the test with 786-0 renal is over 100 µM; in the test on A549 NSCLC it was 8.55 µM; with ACHN renal, 31.5 µM; in the test with CCRF-CEM leukemia, 4.54 µM; with K-562 leukemia, 2.64 µM; in the test on MDA-MB-231 breast, 21.7 µM. For the same compound, the GI50 is 10.8 µM in the test with MDA-MB-435, 15 µM in the test on NCI-H460 lung, 72.5 µM in the test on SF-539 CNS and 27.1 µM in the test with SW-620 colon. For the same compound, the TGI with 786-0 renal, in the test with A549 NSCLC, in the test on ACHN renal, in the test with CCRF-CEM leukemia, in the test with K-562 leukemia and in the test with MDA-MB-231 breast was over 100 µM in each case. The TGI in the test on MDA-MB-435, with NCI-H460 lung, in the test on SF-539 CNS and in the test on SW-620 colon was over 100 µM in each case.
